PMC7036909, “Discovery of Selective SIRT2 Inhibitors as Therapeutic Agents in B-Cell Lymphoma and Other Malignancies” (Molecules, 2020)

Assays:
[1] = target: T1, SIRT2 (Homo sapiens, UniProt Q8IXJ6); assay: SIRT-Glo enzyme inhibition assay, SIRT2; conditions: for IC50: SIRT2 IC50; for inhibition at 50 µM: read-out: SIRT2 percentage inhibition at 50 µM compound, 50 µM compound
T1 sequence (Q8IXJ6 1-389): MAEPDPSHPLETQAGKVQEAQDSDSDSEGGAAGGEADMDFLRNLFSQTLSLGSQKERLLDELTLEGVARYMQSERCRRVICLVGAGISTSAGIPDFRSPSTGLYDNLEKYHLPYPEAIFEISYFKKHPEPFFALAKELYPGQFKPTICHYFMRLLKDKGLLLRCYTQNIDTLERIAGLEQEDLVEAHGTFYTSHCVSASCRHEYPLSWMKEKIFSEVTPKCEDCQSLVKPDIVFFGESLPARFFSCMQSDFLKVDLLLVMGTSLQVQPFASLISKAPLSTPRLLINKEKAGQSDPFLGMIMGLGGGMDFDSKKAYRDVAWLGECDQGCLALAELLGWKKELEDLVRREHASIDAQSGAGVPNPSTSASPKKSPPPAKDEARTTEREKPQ
Method: (§1) SIRT1, SIRT2, and SIRT3 were purchased from Cayman Chemical. Enzyme inhibition assays were performed in 96-well black plates using the SIRT-Glo Assay (Promega Corp.) according to the manufacturer’s instructions. Compounds were dissolved in 100% DMSO and to make 5- or 10-mM stock solutions. For initial enzyme inhibition tests, 50 µM of inhibitory concentration was used. […] IC50 values were determined in triplicate and reported values are averages of two independent experiments.

[2] = target: T2, SIRT1 (Homo sapiens, UniProt Q96EB6); assay: SIRT-Glo enzyme inhibition assay, SIRT1; conditions: for inhibition at 50 µM: read-out: SIRT1 percentage inhibition at 50 µM compound, 50 µM compound
T2 sequence (Q96EB6 1-747): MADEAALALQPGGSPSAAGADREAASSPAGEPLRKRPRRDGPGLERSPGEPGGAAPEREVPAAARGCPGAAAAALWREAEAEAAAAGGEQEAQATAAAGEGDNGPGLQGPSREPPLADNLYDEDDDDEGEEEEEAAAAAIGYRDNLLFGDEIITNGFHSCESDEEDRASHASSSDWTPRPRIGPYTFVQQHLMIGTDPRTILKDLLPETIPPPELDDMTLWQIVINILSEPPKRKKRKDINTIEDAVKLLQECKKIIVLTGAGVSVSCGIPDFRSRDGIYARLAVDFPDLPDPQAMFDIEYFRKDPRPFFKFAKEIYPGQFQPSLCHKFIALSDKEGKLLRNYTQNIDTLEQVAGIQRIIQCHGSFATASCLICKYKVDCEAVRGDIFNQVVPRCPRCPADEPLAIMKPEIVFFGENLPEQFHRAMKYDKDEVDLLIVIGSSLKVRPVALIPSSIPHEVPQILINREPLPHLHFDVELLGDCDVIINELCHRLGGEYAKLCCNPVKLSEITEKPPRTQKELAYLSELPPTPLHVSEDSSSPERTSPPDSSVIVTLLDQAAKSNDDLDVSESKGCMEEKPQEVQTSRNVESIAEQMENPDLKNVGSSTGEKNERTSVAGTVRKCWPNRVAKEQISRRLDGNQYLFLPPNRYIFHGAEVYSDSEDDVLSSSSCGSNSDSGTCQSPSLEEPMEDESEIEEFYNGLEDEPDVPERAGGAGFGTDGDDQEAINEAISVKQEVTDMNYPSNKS
Method: as §1

[3] = target: T3, SIRT3 (Homo sapiens, UniProt Q9NTG7); assay: SIRT-Glo enzyme inhibition assay, SIRT3; conditions: for inhibition at 50 µM: read-out: SIRT3 percentage inhibition at 50 µM compound, 50 µM compound
T3 sequence (Q9NTG7 1-399): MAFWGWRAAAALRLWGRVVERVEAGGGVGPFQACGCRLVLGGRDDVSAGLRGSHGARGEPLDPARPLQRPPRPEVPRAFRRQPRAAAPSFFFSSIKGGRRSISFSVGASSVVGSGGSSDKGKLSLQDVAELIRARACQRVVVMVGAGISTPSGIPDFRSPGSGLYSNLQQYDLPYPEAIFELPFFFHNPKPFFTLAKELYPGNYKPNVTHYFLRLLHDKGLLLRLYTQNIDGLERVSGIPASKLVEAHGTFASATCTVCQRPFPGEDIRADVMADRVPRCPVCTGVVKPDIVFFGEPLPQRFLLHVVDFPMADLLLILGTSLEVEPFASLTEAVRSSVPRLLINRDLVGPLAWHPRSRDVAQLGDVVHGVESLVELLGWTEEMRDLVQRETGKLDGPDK
Method: as §1

| IC50 [1] | inhibition at 50 µM [1] | inhibition at 50 µM [2] | Compound | further results |
| --- | --- | --- | --- | --- |
| 8.95 µM | 91% | 53% | NC(=O)C(Cc1c(O)ccc2cc(Br)ccc12)C(=O)c1cccc(Br)c1 (stereo not shown) [Compound 23, 2-[(6-Bromo-2-hydroxynaphthalen-1-yl)methyl]-3-(3-bromo)-3-oxopropanamide] | inhibition at 50 µM [3]: 41% |
| – | 72% | 34% | COc1ccc(C(=O)C(Cc2c(O)ccc3cc(Br)ccc23)C(N)=O)cc1 (stereo not shown) [Compound 24, 2-[(6-Bromo-2-hydroxynaphthalen-1-yl)methyl]-3-(4-methoxy)-3-oxopropanamide] | – |
| 12.4 µM | 96% | 35% | NC(=O)C(Cc1c(O)ccc2cc(Br)ccc12)C(=O)c1ccc(F)cc1 (stereo not shown) [Compound 25, 2-[(6-Bromo-2-hydroxynaphthalen-1-yl)methyl]-3-(4-fluoro)-3-oxopropanamide] | inhibition at 50 µM [3]: 39% |
| – | 32% | 0% | COc1ccc2c(CC(C(N)=O)C(=O)c3cccc(Br)c3)c(O)ccc2c1 (stereo not shown) [Compound 30, 3-(3-Bromophenyl)-2-[(2-hydroxy-6-methoxynaphthalen-1-yl)methyl]-3-oxopropanamide] | – |
| – | 16% | 0% | NC(=O)C(Cc1c(O)ccc2ccc(Br)cc12)C(=O)c1cccc(Br)c1 (stereo not shown) [Compound 32, 2-[(7-Bromo-2-hydroxynaphthalen-1-yl)methyl]-3-(3-bromophenyl)-3-oxopropanamide] | – |
| 7.62 µM | 86% | 28% | O=C(NCCCO)C(Cc1c(O)ccc2cc(Br)ccc12)C(=O)c1cccc(Br)c1 (stereo not shown) [Compound 37, 2-[(6-Bromo-2-hydroxynaphthalen-1-yl)methyl]-3-(3-bromophenyl)-N-(3-hydroxypropyl)-3-oxopropanamide] | inhibition at 50 µM [3]: 46% |
| – | 53% | 0% | COCCNC(=O)C(Cc1c(O)ccc2cc(Br)ccc12)C(=O)c1cccc(Br)c1 (stereo not shown) [Compound 41, 2-[(6-Bromo-2-hydroxynaphthalen-1-yl)methyl]-3-(3-bromophenyl)-N-(2-methoxyethyl)-3-oxopropanamide] | – |
| 6.5 µM | 98% | 0% | CNC(=O)CCNC(=O)C(Cc1c(O)ccc2cc(Br)ccc12)C(=O)c1cccc(Br)c1 (stereo not shown) [Compound 44, 2-[(6-Bromo-2-hydroxynaphthalen-1-yl)methyl]-3-(3-bromophenyl)-N-[2-(methylcarbamoyl)ethyl]-3-oxo-propanamide] | – |

Second part, the compound before the results:

| Compound | IC50 [1] | inhibition at 50 µM [1] | inhibition at 50 µM [2] | further results |
| --- | --- | --- | --- | --- |
| 2-[(6-Bromo-2-hydroxynaphthalen-1-yl)methyl]-1-[4-(trifluoromethyl)phenyl]hex-5-yne-1,3-dione [Compound 46] | – | – | – | SIRT2 percentage inhibition at 50 µM compound [1]: 88%; SIRT1 percentage inhibition at 50 µM compound [2]: 28% |
| 2-[(6-Bromo-2-hydroxynaphthalen-1-yl)methyl]-3-(3-bromophenyl)-N-(furan-3-ylmethyl)-3-oxopropanamide [Compound 39] | – | – | – | SIRT2 percentage inhibition at 50 µM compound [1]: 30%; SIRT1 percentage inhibition at 50 µM compound [2]: 13% |
| 2-[(6-Bromo-2-hydroxynaphthalen-1-yl)methyl]-3-(4-acetamidophenyl)-3-oxopropanamide [Compound 28] | – | – | – | SIRT2 percentage inhibition at 50 µM compound [1]: 58%; SIRT1 percentage inhibition at 50 µM compound [2]: 0.0% |
| Cc1ccc(C(=O)C(Cc2c(O)ccc3cc(Br)ccc23)C(N)=O)cc1 (stereo not shown) [Compound 4, 2-[(6-Bromo-2-hydroxynaphthalen-1-yl)methyl]-3-(4-methylphenyl)-3-oxopropanamide] | 13 µM | 89% | 9% | IC50 [2]: > 200 µM |
| Cc1cccc(C(=O)C(Cc2c(O)ccc3cc(Br)ccc23)C(N)=O)c1 (stereo not shown) [Compound 16, 2-[(6-Bromo-2-hydroxynaphthalen-1-yl)methyl]-3-(3-methylphenyl)-3-oxopropanamide] | – | 70% | 38% | – |
| Cc1ccccc1C(=O)C(Cc1c(O)ccc2cc(Br)ccc12)C(N)=O (stereo not shown) [Compound 17, 2-[(6-Bromo-2-hydroxynaphthalen-1-yl)methyl]-3-(2-methylphenyl)-3-oxopropanamide] | – | 3% | 0% | – |
| NC(=O)C(Cc1c(O)ccc2cc(Br)ccc12)C(=O)c1ccccc1 (stereo not shown) [Compound 18, 2-[(6-Bromo-2-hydroxynaphthalen-1-yl)methyl]-3-oxo-3-phenylpropanamide] | – | 57% | 0% | – |
| NC(=O)C(Cc1c(O)ccc2cc(Br)ccc12)C(=O)c1ccc(C(F)(F)F)cc1 (stereo not shown) [Compound 20, 2-[(6-Bromo-2-hydroxynaphthalen-1-yl)methyl]-3-(4-trifluoromethylphenyl)-3-oxopropanamide] | 1.9 µM | 100% | 0% | inhibition at 50 µM [3]: 5% |
| NC(=O)C(Cc1c(O)ccc2cc(Br)ccc12)C(=O)c1cccc(C(F)(F)F)c1 (stereo not shown) [Compound 21, 2-[(6-Bromo-2-hydroxynaphthalen-1-yl)methyl]-3-(3-trifluoromethylphenyl)-3-oxopropanamide] | 12.6 µM | 89% | 0% | inhibition at 50 µM [3]: 15% |
| NC(=O)C(Cc1c(O)ccc2ccccc12)C(=O)c1cccc(Br)c1 (stereo not shown) [Compound 29, 3-(3-Bromophenyl)-2-[(2-hydroxynaphthalen-1-yl)methyl]-3-oxopropanamide] | – | 14% | 12% | – |
| NC(=O)C(Cc1c(O)c(Br)cc2ccccc12)C(=O)c1cccc(Br)c1 (stereo not shown) [Compound 31, 2-[(3-Bromo-2-hydroxynaphthalen-1-yl)methyl]-3-(3-bromophenyl)-3-oxopropanamide] | – | 37% | 0% | – |
| O=C(NCCO)C(Cc1c(O)ccc2cc(Br)ccc12)C(=O)c1cccc(Br)c1 (stereo not shown) [Compound 36, 2-[(6-Bromo-2-hydroxynaphthalen-1-yl)methyl]-3-(3-bromophenyl)-N-(2-hydroxyethyl)-3-oxopropanamide] | 4.75 µM | 94% | 0% | inhibition at 50 µM [3]: 43% |
| O=C(c1cccc(Br)c1)C(Cc1c(O)ccc2cc(Br)ccc12)C(=O)N1CCOCC1 (stereo not shown) [Compound 38, 2-[(6-Bromo-2-hydroxynaphthalen-1-yl)methyl]-1-(3-bromophenyl)-3-(morpholin-4-yl)propane-1,3-dione] | – | 22% | 1% | – |
| O=C(NCc1cccnc1)C(Cc1c(O)ccc2cc(Br)ccc12)C(=O)c1cccc(Br)c1 (stereo not shown) [Compound 42] | – | 6% | 3% | – |
| CN1CCN(C(=O)C(Cc2c(O)ccc3cc(Br)ccc23)C(=O)c2ccc(C(F)(F)F)cc2)CC1 (stereo not shown) [Compound 45, 2-[(6-Bromo-2-hydroxynaphthalen-1-yl)methyl]-1-(4-methylpiperazin-1-yl)-3-[4-(trifluoromethyl)phenyl]-propane-1,3-dione] | – | 88% | 10% | – |
| NC(=O)CCNC(=O)C(Cc1c(O)ccc2cc(Br)ccc12)C(=O)c1cccc(C(F)(F)F)c1 (stereo not shown) [Compound 53] | 1.57 µM | 91% | 8% | selectivity for SIRT2 over SIRT3 ([3]; SIRT2 versus SIRT3): > 800 fold; inhibition at 50 µM [3]: 16%; selectivity for SIRT2 over SIRT1 ([2]; SIRT2 versus SIRT1): > 400 fold |
